Data from the OligoGym collection.
HELM strings list units from the 5' end as sugar, base in round brackets, then linkage (d deoxyribose, r ribose, m 2'-O-methyl, p phosphodiester). Strings are as the collection lists them; they lack the last nucleoside at the 3' end of the tested compound. [moe] = 2'-O-(2-methoxyethyl) (MOE); [sp] = phosphorothioate linkage; [m5C] = 5-methylcytosine

Biological target: SMN2
Assay: mouse, dose not given
Conditions: ASO

Substance	3 h FOB score [score 0-7]
RNA1{[moe](T)[sp].[moe]([m5C])[sp].[moe](A)[sp].[moe]([m5C])[sp].[moe](T)[sp].[moe](T)[sp].[moe](T)[sp].[moe]([m5C])[sp].[moe](A)p.[moe](T)[sp].[moe](A)[sp].[moe](A)[sp].[moe](T)[sp].[moe](G)[sp].[moe]([m5C])p.[moe](T)[sp].[moe](G)}$$$$ (last 3' nucleoside missing)	3.25
RNA1{[moe](T)[sp].[moe]([m5C])[sp].[moe](A)[sp].[moe]([m5C])[sp].[moe](T)[sp].[moe](T)[sp].[moe](T)[sp].[moe]([m5C])[sp].[moe](A)p.[moe](T)[sp].[moe](A)[sp].[moe](A)[sp].[moe](T)[sp].[moe](G)p.[moe]([m5C])[sp].[moe](T)[sp].[moe](G)}$$$$ (last 3' nucleoside missing)	3.5
RNA1{[moe](T)[sp].[moe]([m5C])[sp].[moe](A)[sp].[moe]([m5C])[sp].[moe](T)[sp].[moe](T)[sp].[moe](T)[sp].[moe]([m5C])p.[moe](A)[sp].[moe](T)[sp].[moe](A)[sp].[moe](A)[sp].[moe](T)[sp].[moe](G)[sp].[moe]([m5C])[sp].[moe](T)[sp].[moe](G)}$$$$ (last 3' nucleoside missing)	4.25
RNA1{[moe](T)[sp].[moe]([m5C])[sp].[moe](A)[sp].[moe]([m5C])[sp].[moe](T)[sp].[moe](T)[sp].[moe](T)[sp].[moe]([m5C])p.[moe](A)p.[moe](T)[sp].[moe](A)[sp].[moe](A)[sp].[moe](T)[sp].[moe](G)[sp].[moe]([m5C])[sp].[moe](T)[sp].[moe](G)}$$$$ (last 3' nucleoside missing)	4
RNA1{[moe](T)[sp].[moe]([m5C])[sp].[moe](A)[sp].[moe]([m5C])[sp].[moe](T)[sp].[moe](T)p.[moe](T)[sp].[moe]([m5C])[sp].[moe](A)[sp].[moe](T)[sp].[moe](A)[sp].[moe](A)[sp].[moe](T)[sp].[moe](G)[sp].[moe]([m5C])[sp].[moe](T)[sp].[moe](G)}$$$$ (last 3' nucleoside missing)	4
RNA1{[moe](T)[sp].[moe]([m5C])[sp].[moe](A)[sp].[moe]([m5C])p.[moe](T)[sp].[moe](T)[sp].[moe](T)[sp].[moe]([m5C])[sp].[moe](A)[sp].[moe](T)[sp].[moe](A)[sp].[moe](A)[sp].[moe](T)[sp].[moe](G)[sp].[moe]([m5C])[sp].[moe](T)[sp].[moe](G)}$$$$ (last 3' nucleoside missing)	3.5
RNA1{[moe](T)[sp].[moe]([m5C])p.[moe](A)[sp].[moe]([m5C])[sp].[moe](T)[sp].[moe](T)[sp].[moe](T)[sp].[moe]([m5C])[sp].[moe](A)[sp].[moe](T)[sp].[moe](A)[sp].[moe](A)[sp].[moe](T)[sp].[moe](G)[sp].[moe]([m5C])[sp].[moe](T)[sp].[moe](G)}$$$$ (last 3' nucleoside missing)	3.25
RNA1{[moe](T)[sp].[moe]([m5C])p.[moe](A)[sp].[moe]([m5C])[sp].[moe](T)[sp].[moe](T)[sp].[moe](T)[sp].[moe]([m5C])[sp].[moe](A)[sp].[moe](T)[sp].[moe](A)[sp].[moe](A)[sp].[moe](T)[sp].[moe](G)[sp].[moe]([m5C])p.[moe](T)[sp].[moe](G)}$$$$ (last 3' nucleoside missing)	3.5
RNA1{[moe](T)[sp].[moe]([m5C])p.[moe](A)[sp].[moe]([m5C])[sp].[moe](T)[sp].[moe](T)[sp].[moe](T)[sp].[moe]([m5C])[sp].[moe](A)p.[moe](T)[sp].[moe](A)[sp].[moe](A)[sp].[moe](T)[sp].[moe](G)[sp].[moe]([m5C])[sp].[moe](T)[sp].[moe](G)}$$$$ (last 3' nucleoside missing)	4
RNA1{[moe](T)[sp].[moe]([m5C])p.[moe](A)[sp].[moe]([m5C])p.[moe](T)[sp].[moe](T)[sp].[moe](T)[sp].[moe]([m5C])[sp].[moe](A)[sp].[moe](T)[sp].[moe](A)[sp].[moe](A)[sp].[moe](T)[sp].[moe](G)[sp].[moe]([m5C])[sp].[moe](T)[sp].[moe](G)}$$$$ (last 3' nucleoside missing)	3.75
RNA1{[moe](T)[sp].[moe]([m5C])p.[moe](A)p.[moe]([m5C])[sp].[moe](T)[sp].[moe](T)[sp].[moe](T)[sp].[moe]([m5C])[sp].[moe](A)[sp].[moe](T)[sp].[moe](A)[sp].[moe](A)[sp].[moe](T)[sp].[moe](G)[sp].[moe]([m5C])[sp].[moe](T)[sp].[moe](G)}$$$$ (last 3' nucleoside missing)	4.75
RNA1{[moe](T)p.[moe](T)[sp].[moe]([m5C])[sp].[moe](A)[sp].[moe]([m5C])[sp].[moe](T)[sp].[moe](T)[sp].[moe](T)[sp].[moe]([m5C])[sp].[moe](A)[sp].[moe](T)[sp].[moe](A)[sp].[moe](A)[sp].[moe](T)[sp].[moe](G)[sp].[moe]([m5C])[sp].[moe](T)[sp].[moe](G)[sp].[moe](G)}$$$$ (last 3' nucleoside missing)	3.25
RNA1{[moe](T)p.[moe](T)[sp].[moe]([m5C])[sp].[moe](A)[sp].[moe]([m5C])[sp].[moe](T)[sp].[moe](T)[sp].[moe](T)[sp].[moe]([m5C])[sp].[moe](A)[sp].[moe](T)[sp].[moe](A)[sp].[moe](A)[sp].[moe](T)[sp].[moe](G)[sp].[moe]([m5C])[sp].[moe](T)[sp].[moe](G)}$$$$ (last 3' nucleoside missing)	4
RNA1{[moe]([m5C])[sp].[moe](A)[sp].[moe]([m5C])[sp].[moe](T)[sp].[moe](T)[sp].[moe](T)[sp].[moe]([m5C])[sp].[moe](A)[sp].[moe](T)[sp].[moe](A)[sp].[moe](A)[sp].[moe](T)[sp].[moe](G)[sp].[moe]([m5C])[sp].[moe](T)[sp].[moe](G)[sp].[moe](G)[sp].[moe]([m5C])[sp].[moe](A)}$$$$ (last 3' nucleoside missing)	0
RNA1{[moe]([m5C])[sp].[moe](A)[sp].[moe]([m5C])[sp].[moe](T)[sp].[moe](T)[sp].[moe](T)[sp].[moe]([m5C])[sp].[moe](A)[sp].[moe](T)[sp].[moe](A)[sp].[moe](A)[sp].[moe](T)[sp].[moe](G)[sp].[moe]([m5C])[sp].[moe](T)[sp].[moe](G)[sp].[moe](G)[sp].[moe]([m5C])}$$$$ (last 3' nucleoside missing)	0
RNA1{[moe]([m5C])[sp].[moe](A)[sp].[moe]([m5C])[sp].[moe](T)[sp].[moe](T)[sp].[moe](T)[sp].[moe]([m5C])[sp].[moe](A)[sp].[moe](T)[sp].[moe](A)[sp].[moe](A)[sp].[moe](T)[sp].[moe](G)[sp].[moe]([m5C])[sp].[moe](T)[sp].[moe](G)[sp].[moe](G)}$$$$ (last 3' nucleoside missing)	2.5
RNA1{[moe]([m5C])[sp].[moe](A)[sp].[moe]([m5C])[sp].[moe](T)[sp].[moe](T)[sp].[moe](T)[sp].[moe]([m5C])[sp].[moe](A)[sp].[moe](T)[sp].[moe](A)[sp].[moe](A)[sp].[moe](T)[sp].[moe](G)[sp].[moe]([m5C])[sp].[moe](T)[sp].[moe](G)}$$$$ (last 3' nucleoside missing)	3.25
RNA1{[moe]([m5C])[sp].[moe](A)[sp].[moe]([m5C])[sp].[moe](T)[sp].[moe](T)[sp].[moe](T)[sp].[moe]([m5C])[sp].[moe](A)[sp].[moe](T)[sp].[moe](A)[sp].[moe](A)[sp].[moe](T)[sp].[moe](G)[sp].[moe]([m5C])[sp].[moe](T)p.[moe](G)[sp].[moe](G)}$$$$ (last 3' nucleoside missing)	0
RNA1{[moe]([m5C])[sp].[moe](A)[sp].[moe]([m5C])[sp].[moe](T)[sp].[moe](T)[sp].[moe](T)[sp].[moe]([m5C])[sp].[moe](A)[sp].[moe](T)[sp].[moe](A)[sp].[moe](A)[sp].[moe](T)[sp].[moe](G)[sp].[moe]([m5C])p.[moe](T)p.[moe](G)[sp].[moe](G)}$$$$ (last 3' nucleoside missing)	0
RNA1{[moe]([m5C])[sp].[moe](A)[sp].[moe]([m5C])[sp].[moe](T)[sp].[moe](T)[sp].[moe](T)[sp].[moe]([m5C])[sp].[moe](A)[sp].[moe](T)[sp].[moe](A)[sp].[moe](A)[sp].[moe](T)[sp].[moe](G)p.[moe]([m5C])[sp].[moe](T)[sp].[moe](G)[sp].[moe](G)}$$$$ (last 3' nucleoside missing)	0
RNA1{[moe]([m5C])[sp].[moe](A)[sp].[moe]([m5C])[sp].[moe](T)[sp].[moe](T)[sp].[moe](T)[sp].[moe]([m5C])[sp].[moe](A)[sp].[moe](T)[sp].[moe](A)[sp].[moe](A)[sp].[moe](T)[sp].[moe](G)p.[moe]([m5C])[sp].[moe](T)p.[moe](G)[sp].[moe](G)}$$$$ (last 3' nucleoside missing)	0
RNA1{[moe]([m5C])[sp].[moe](A)[sp].[moe]([m5C])[sp].[moe](T)[sp].[moe](T)[sp].[moe](T)[sp].[moe]([m5C])[sp].[moe](A)[sp].[moe](T)[sp].[moe](A)[sp].[moe](A)[sp].[moe](T)p.[moe](G)p.[moe]([m5C])[sp].[moe](T)[sp].[moe](G)[sp].[moe](G)}$$$$ (last 3' nucleoside missing)	0
RNA1{[moe]([m5C])[sp].[moe](A)[sp].[moe]([m5C])[sp].[moe](T)[sp].[moe](T)[sp].[moe](T)[sp].[moe]([m5C])[sp].[moe](A)[sp].[moe](T)[sp].[moe](A)[sp].[moe](A)[sp].[moe](T)p.[moe](G)p.[moe]([m5C])p.[moe](T)p.[moe](G)[sp].[moe](G)}$$$$ (last 3' nucleoside missing)	0
